Measurements published in patent publication US20220047609A1, “VAGINAL INSERTED ESTRADIOL PHARMACEUTICAL COMPOSITIONS AND METHODS” (THERAPEUTICSMD, INC., priority 2012, published 2022).
Values belong to the molecule of their own block, whether it stands above or below them.

Legend:
[1] = solubility of estradiol in the solubilizing agent; * denotes literature reference; cited from earlier work
[2] = Estradiol solubility in solubilizing agents (HPLC); assay type: physicochemical; conditions: solubility of estradiol in the solubilizing agent, equilibrated three days
Method: Initial solubility was measured by dissolving micronized estradiol into various solubilizing agents until the estradiol was saturated (the estradiol/solubilizing agent equilibrated for three days), filtering the undissolved estradiol, and analyzing the resulting pharmaceutical composition for estradiol concentration by HPLC.

[3] = tested on: dyspareunia; conditions: cited from earlier work

SMILES: CC(O)CO (stereo not shown) [Propylene Glycol]
Solubility (mg/g) [1]: 75* mg/g

Solubility [2]: 141 mg/g
SMILES: CCOCCOCCO [TRANSCUTOL HP, 2-(2-ethoxyethoxy)ethanol]

SMILES: OCCOc1ccc(/C(=C(/CCCl)c2ccccc2)c2ccccc2)cc1 [ospemifene]
vaginal discharge, frequency relative to the placebo group ([3]; 12-week study): more than 6 times | week until which statistically significant improvements of dyspareunia were not observed ([3]; human, in vivo): 12 week
